Read-outs that look alike come from different tables or passages of the source.
Columns and labels:
ovine COX-1 = target: T1, ovine COX-1 (Ovis aries, UniProt P05979); test: COX functional assay; format: biochemical; settings: for Inhibition of COX-1 (%) Mean ± std. dev. (N=3): compound 10 μM; for inhibition at 10 µM: read-out: Inhibition of COX-1 (%) Mean ± std. dev. (N=3)
T1 sequence (P05979 25-600): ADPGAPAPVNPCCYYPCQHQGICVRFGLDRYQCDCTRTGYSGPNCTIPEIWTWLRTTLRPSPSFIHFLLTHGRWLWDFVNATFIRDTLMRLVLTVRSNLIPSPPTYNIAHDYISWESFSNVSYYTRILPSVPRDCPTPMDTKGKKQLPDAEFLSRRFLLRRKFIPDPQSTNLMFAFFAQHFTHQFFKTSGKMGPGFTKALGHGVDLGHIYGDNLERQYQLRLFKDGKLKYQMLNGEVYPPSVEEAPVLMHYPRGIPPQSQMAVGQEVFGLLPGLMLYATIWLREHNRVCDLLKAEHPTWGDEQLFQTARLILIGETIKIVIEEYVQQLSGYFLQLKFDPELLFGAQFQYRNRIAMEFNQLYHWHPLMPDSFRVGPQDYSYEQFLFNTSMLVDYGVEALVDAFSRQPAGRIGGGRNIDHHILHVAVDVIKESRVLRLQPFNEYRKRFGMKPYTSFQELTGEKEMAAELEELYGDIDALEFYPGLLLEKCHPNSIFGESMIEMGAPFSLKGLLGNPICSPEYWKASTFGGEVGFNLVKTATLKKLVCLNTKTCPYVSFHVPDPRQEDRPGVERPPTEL

human COX-2 = target: T2, human COX-2 (Homo sapiens, UniProt P35354); test: COX functional assay; format: biochemical; settings: for Inhibition of COX-2 (%) Mean ± std. dev. (N=3): compound 10 μM; for COX-2 selectivity (IC50 COX-1 / IC50 COX-2): ratio of IC50 values; for inhibition at 10 µM: read-out: Inhibition of COX-2 (%) Mean ± std. dev. (N=3); for selectivity for COX-2 (COX-1 IC50 / COX-2 IC50): human COX-2 over COX-1
T2 sequence (P35354 18-604): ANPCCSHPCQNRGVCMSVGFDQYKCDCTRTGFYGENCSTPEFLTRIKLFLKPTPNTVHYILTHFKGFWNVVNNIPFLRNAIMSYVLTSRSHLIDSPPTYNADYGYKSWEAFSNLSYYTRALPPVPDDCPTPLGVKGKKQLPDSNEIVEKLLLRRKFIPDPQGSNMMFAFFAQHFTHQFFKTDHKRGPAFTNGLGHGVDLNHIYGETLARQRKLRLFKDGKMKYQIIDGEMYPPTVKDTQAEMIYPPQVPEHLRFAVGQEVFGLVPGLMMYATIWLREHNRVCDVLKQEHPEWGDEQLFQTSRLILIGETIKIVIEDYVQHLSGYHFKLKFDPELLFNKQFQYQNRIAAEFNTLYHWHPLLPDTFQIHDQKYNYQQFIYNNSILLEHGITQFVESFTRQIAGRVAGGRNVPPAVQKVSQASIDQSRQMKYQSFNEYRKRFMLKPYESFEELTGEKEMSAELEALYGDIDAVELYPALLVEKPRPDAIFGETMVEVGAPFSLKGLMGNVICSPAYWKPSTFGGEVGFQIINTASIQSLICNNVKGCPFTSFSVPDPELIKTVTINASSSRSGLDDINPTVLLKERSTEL

COX-1 [1] = settings: read-out: IC50 COX-1; assay using human platelets; cited from earlier work
ovine COX-2 = test: Pulsed ultrafiltration LC-MS screening for COX-2 ligands; format: binding; settings: for binding to COX-2 (result in words): pulsed ultrafiltration LC-MS; for peak enhancement compared to the control chromatograms: standards screened as mixtures, 0.7 μg/mL each, control denatured COX-2
COX-1 [2] = settings: read-out: IC50 COX-1; cited from earlier work
COX-2 = settings: read-out: IC50 COX-2; cited from earlier work
[3] = read-out: IC50 COX-2, N=3, mean ± std. dev.
[4] = IC50 COX-1, N=3, mean ± std. dev.
[5] = IC50 COX-2, N=3, mean ± std. dev.
[6] = read-out: IC50 COX-1, N=3, mean ± std. dev.

## CC(=O)O[C@@H]1CC[C@@]2(C)[C@@H](CC[C@]3(C)[C@@H]2C(=O)C=C2[C@@H]4[C@@H](C)[C@H](C)CC[C@]4(C)CC[C@]23C)[C@@]1(C)C(=O)O [Acetyl-11-keto-β-boswellic acid]
Ovine COX-1
  Inhibition of COX-1 (%) Mean ± std. dev. (N=3): 39 ± 5%
Human COX-2
  Inhibition of COX-2 (%) Mean ± std. dev. (N=3): 23 ± 15%
Human COX-2; [3]
  IC50: 85 ± 20 µM
Human COX-2; read-out: IC50 COX-2, N=3, mean ± std. dev., listed as acetyl-11-keto-β-boswellic acid
  IC50: ≥ 73 µM
COX-1 [1]
  IC50: 6 µM

## CC(=O)O[C@@H]1CC[C@@]2(C)[C@@H](CC[C@]3(C)[C@@H]2CC=C2[C@@H]4CC(C)(C)CC[C@]4(C)CC[C@]23C)[C@@]1(C)C(=O)O [Acetyl-α-boswellic acid]
Ovine COX-1
  Inhibition of COX-1 (%) Mean ± std. dev. (N=3): 74 ± 3%
Human COX-2
  Inhibition of COX-2 (%) Mean ± std. dev. (N=3): 19 ± 5%
Human COX-2; [3]
  IC50: > 100 µM
Human COX-2; read-out: IC50 COX-2, N=3, mean ± std. dev., listed as acetyl-α-boswellic acid
  IC50: ≥ 73 µM

## CC(=O)O[C@@H]1CC[C@@]2(C)[C@@H](CC[C@]3(C)[C@@H]2CC=C2[C@@H]4[C@@H](C)[C@H](C)CC[C@]4(C)CC[C@]23C)[C@@]1(C)C(=O)O [Acetyl-β-boswellic acid]
Ovine COX-1
  Inhibition of COX-1 (%) Mean ± std. dev. (N=3): 31 ± 10%
Human COX-2
  Inhibition of COX-2 (%) Mean ± std. dev. (N=3): 25 ± 6%
Human COX-2; [3]
  IC50: 73 ± 20 µM
Human COX-2; read-out: IC50 COX-2, N=3, mean ± std. dev., listed as acetyl-β-boswellic acid
  IC50: ≥ 73 µM

## C=C(C)[C@@H]1CC[C@]2(C(=O)O)CC[C@]3(C)[C@H](CC[C@@H]4[C@@]5(C)CC[C@H](O)C(C)(C)[C@@H]5CC[C@]43C)[C@@H]12 [Betulinic acid]
Ovine COX-1; [4]
  IC50: 20 ± 3 µM
Ovine COX-1
  inhibition at 10 µM: 32 ± 5%
Human COX-2
  inhibition of COX-2 in the functional assay (result in words): almost no inhibition of COX-2
  COX-2 selectivity (IC50 COX-1 / IC50 COX-2): COX-1 specific
  inhibition at 10 µM: 33 ± 5%
Human COX-2; [5]
  IC50: > 100 µM

## C[C@H]1COC2=C1C(=O)C(=O)c1c2ccc2c1CCCC2(C)C [Cryptotanshinone]
Ovine COX-2
  binding to COX-2 (result in words): determined to be COX-2 ligands
Ovine COX-1; [4]
  IC50: > 100 µM
Ovine COX-1
  inhibition at 10 µM: 0%
Human COX-2; [5]
  IC50: 22 ± 10 µM
Human COX-2
  selectivity for COX-2 (COX-1 IC50 / COX-2 IC50): ≥ 5 fold
  COX-2 selectivity (IC50 COX-1 / IC50 COX-2): COX-2 specific
  inhibition at 10 µM: 31 ± 20%

## CC1(C)[C@@H](O)CC[C@]2(C)[C@H]3C(=O)C=C4[C@@H]5C[C@@](C)(C(=O)O)CC[C@]5(C)CC[C@@]4(C)[C@]3(C)CC[C@@H]12 [Glycyrrhetic acid]
Ovine COX-1
  inhibition of COX-1 in the functional assay (result in words): did not inhibit
Human COX-2
  inhibition of COX-2 in the functional assay (result in words): did not inhibit

## CC(C)=CCOc1c2ccoc2cc2oc(=O)ccc12 [Isoimperatorin]
Ovine COX-1
  inhibition of COX-1 in the functional assay (result in words): did not inhibit
Human COX-2
  inhibition of COX-2 in the functional assay (result in words): did not inhibit

## O=C(/C=C/c1ccc(O)cc1)c1ccc(O)cc1O [Isoliquiritigenin]
Ovine COX-2
  peak enhancement compared to the control chromatograms: ≥ 40%
Human COX-2
  inhibition at 10 µM: 23 ± 3%

## COc1ccc(-c2cc(=O)c3c(O)cc(O)cc3o2)cc1 [Linarigenin]
Ovine COX-1
  inhibition of COX-1 in the functional assay (result in words): did not inhibit
Human COX-2
  inhibition of COX-2 in the functional assay (result in words): did not inhibit

## O=C1C[C@@H](c2ccc(O)cc2)Oc2cc(O)ccc21 [Liquiritigenin]
Ovine COX-2
  binding to COX-2 (result in words): did not show sufficient binding to COX-2

## CC(C)=CC(O)C/C(C)=C/COc1c2ccoc2cc2oc(=O)ccc12 (centres unmarked) [Notopterol]
Ovine COX-1
  inhibition of COX-1 in the functional assay (result in words): did not inhibit
Human COX-2
  inhibition of COX-2 in the functional assay (result in words): did not inhibit

## CC(C)=CCC/C(C)=C/Cc1cc2ccc(=O)oc2cc1O [Ostruthin]
Ovine COX-1
  inhibition of COX-1 in the functional assay (result in words): did not inhibit
Human COX-2
  inhibition of COX-2 in the functional assay (result in words): did not inhibit

## COc1cc(/C=C/C(=O)OCCc2ccccc2)ccc1O [Phenethyl trans-ferulate]
Ovine COX-2
  peak enhancement compared to the control chromatograms: ≥ 40%
Ovine COX-1
  Inhibition of COX-1 (%) Mean ± std. dev. (N=3): 44 ± 3%
Ovine COX-1; [6]
  IC50: 18 ± 5 µM
Human COX-2
  Inhibition of COX-2 (%) Mean ± std. dev. (N=3): 25 ± 10%
  COX-2 selectivity (IC50 COX-1 / IC50 COX-2): 0.58
Human COX-2; listed as phenethyl-trans-ferulate
  COX-2 selectivity (IC50 COX-1 / IC50 COX-2): inhibited COX-1 and COX-2 equally
Human COX-2; [3]
  IC50: 31 ± 15 µM

## Oc1ccc(/C=C/c2cc(O)cc(O)c2)cc1 [Resveratrol, reference compound]
Ovine COX-1; [4]
  IC50: 0.86 ± 0.1 µM
Ovine COX-1
  inhibition at 10 µM: 86 ± 7%
COX-1 [2]
  IC50: 0.83 ± 0.44 µM
COX-2
  IC50: 0.99 ± 0.4 µM

## C=C(C)[C@@H]1CC[C@]2(C)[C@H](CC=C3[C@@H]4[C@@H](C)[C@H](C)CC[C@]4(C)CC[C@]32C)[C@@]1(C)CCC(=O)O [Roburic acid]
Ovine COX-1
  Inhibition of COX-1 (%) Mean ± std. dev. (N=3): 33 ± 8%
Ovine COX-1; [6]
  IC50: 5 ± 2 µM
Human COX-2
  Inhibition of COX-2 (%) Mean ± std. dev. (N=3): 45 ± 5%
Human COX-2; [3]
  IC50: 9 ± 3 µM

## CCC/C=C1\OC(=O)C2=C1CC[C@H]1[C@H]3C=C4C(=O)O/C(=C\CCC)[C@@]4(CC3)[C@@H]21 [Senkyunolide O]
Ovine COX-2
  binding to COX-2 (result in words): determined to be COX-2 ligands
Ovine COX-1
  Inhibition of COX-1 (%) Mean ± std. dev. (N=3): 0 ± 5%
Ovine COX-1; [6]
  IC50: 25 ± 10 µM
Human COX-2
  Inhibition of COX-2 (%) Mean ± std. dev. (N=3): 52 ± 20%
  selectivity for COX-2 (COX-1 IC50 / COX-2 IC50): ≥ 5 fold
  COX-2 selectivity (IC50 COX-1 / IC50 COX-2): 5.00
Human COX-2; [3]
  IC50: 5 ± 5 µM

## CC1(C)CC[C@]2(C)CC[C@]3(C)C(=CC[C@@H]4[C@@]5(C)CC[C@@H](O)[C@](C)(C(=O)O)[C@@H]5CC[C@]43C)[C@@H]2C1 [α-Boswellic acid]
Ovine COX-1
  inhibition of COX-1 in the functional assay (result in words): did not inhibit
Human COX-2
  inhibition of COX-2 in the functional assay (result in words): did not inhibit

## C[C@H]1[C@H](C)CC[C@]2(C)CC[C@]3(C)C(=CC[C@@H]4[C@@]5(C)CC[C@@H](O)[C@](C)(C(=O)O)[C@@H]5CC[C@]43C)[C@H]12 [β-Boswellic acid]
Ovine COX-1
  inhibition at 10 µM: 42 ± 15%
Human COX-2; [5]
  IC50: > 100 µM
Human COX-2
  inhibition at 10 µM: 17 ± 15%

## CC[C@H](CC[C@@H](C)[C@H]1CC[C@H]2[C@@H]3CC=C4C[C@@H](O)CC[C@]4(C)[C@H]3CC[C@]12C)C(C)C [β-Sitosterol]
Ovine COX-1
  inhibition of COX-1 in the functional assay (result in words): did not inhibit
Human COX-2
  inhibition of COX-2 in the functional assay (result in words): did not inhibit
